Reference: article PMC9316063, “Chalcones as Anti-Glioblastoma Stem Cell Agent Alone or as Nanoparticle Formulation Using Carbon Dots as Nanocarrier” (Pharmaceutics, 2022)
Values joined by “and” are separate entries in the source; they are usually repeats but may differ in a detail not shown here. Equal entries are not always repeated. Where two headings read alike, the source gives them in different places.

Legend:
Type in all cases: cell-based, human
Glio3 [1] = test: MTS cell viability assay, GSC line Glio3; details: 72 h, read-out: Glio3 IC50
Text: (§1) The generation and characterization of our GSC lines (Glio3, Glio9, Glio38) have been previously described. In brief, following patient consent, the resected tumors were mechanically and enzymatically dissociated, and red blood cells were removed using Red Cell Lysis buffer (SigmaAldrich, St. Louis, MO, USA). Cells were filtered and plated in a 3:1 ratio of Dulbecco’s Modified Eagle’s medium (DMEM): F12 (Gibco, Carlsbad, CA, USA) media supplemented with 1% penicillin and streptomcycin (penn/strep), 20 ng/mL each of human epidermal growth factor and human fibroblast growth factor, and 2% Gem21 NeuroPlex Serum-Free Supplement (Gemini Bioscience, Sacramento, CA, USA); a formulation consistent for the generation of GBM stem cell lines. Both Glio3 and Glio38 were derived from tumors prior to drug or radiation therapy and grow as neurospheres, whereas Glio9 was derived from a recurrent tumor, following chemo and radiotherapy, and grows adherent. The GBM cell line U87 MG (U87), purchased from ATCC (Manassas, VA, USA) and the pediatric GBM cell line SJ-GBM2 was obtained from Children’s Oncology Group. SJ-GBM2 cell line was derived from a child with glioblastoma post therapy and is used as part of a National Cancer Institute pediatric pre-clinical testing program. Both lines were maintained in RPMI media supplemented with 10% FBS and 1% penn/strep. Mesenchymal stem cells (MSCs) originally derived from human bone marrow aspirates were obtained from Thermo Fisher Scientific and maintained in MEM alpha supplemented with 20% FBS and 1% penn/strep. Prior to drug treatment, MSCs were moved to media with 10% FBS. Upon receipt U87, SJ-GBM2 and MSCs were immediately expanded with several aliquots frozen down for future use. These cell lines are not listed on the most recent NCBI database for misidentification and contamination of human cell lines. All cell lines were routinely tested for mycoplasma using LookOut mycoplasma PCR detection kit (Sigma-Aldrich, St. Louis, MO, USA) according to the manufacturer’s instructions and were maintained at 37 °C in a humidified 5% CO2 incubator.
(§2) The chalcones were dissolved in dimethyl sulfoxide (DMSO) at a concentration of 10 mM, vortexed and subsequently diluted to obtain 1 mM and 0.1 mM stock concentrations. C-dot-trans-chalcones were resuspended in supplement-free media (3:1 ratio DMEM/F12 for GSC experiments or RPMI for non-stem cell line experiments). Cell viability in response to drug treatment was determined using CellTiter 96 AQueous One Solution Cell Proliferation Assay, a colorimetric MTS assay kit (Promega, Madison, WI, USA). The GSCs were seeded into 96-well plates using modified neurosphere media containing 5% FBS at a density of 10,000 cells per well. MSCs and U87 cells were plated at 5000 cells/well while SJ-GBM2 cells were plated at 10,000 cells/well. The next day cells were treated with increasing concentrations of chalcones or C-dot-chalcone conjugate. Next, 72 h later, media was aspirated and 100 μL of a 1:5 solution of MTS to cell culture media was added to each well and incubated for 1–4 h. Optical density was measured at 490 nm using BioTek Synergy HT plate reader. Viability of drug treated cells is expressed as the percent viable cells relative to non-treated cells (100% viability). Experiments were done in triplicate.

Glio9 = test: MTS cell viability assay, GSC line Glio9; details: 72 h, read-out: Glio9 IC50
Text: as §1, §2

Glio38 [2] = test: MTS cell viability assay, GSC line Glio38; details: 72 h, read-out: Glio38 IC50
Text: as §1, §2

[3] = test system: GSC lines Glio3, Glio9 and Glio38; test: MTS cell viability assay, all three GSC lines together; details: for activity against GSCs: at the concentrations tested; for IC50: 72 h
Text: as §1, §2

[4] = test system: mesenchymal stem cells (MSC); test: MTS cell viability assay, mesenchymal stem cells; details: 72 h, estimated, >>10 indicates no cell death observed at any of the concentrations tested
Text: as §1, §2

U87 = test: MTS cell viability assay, U87; details: 72 h
Text: The generation and characterization of our GSC lines (Glio3, Glio9, Glio38) have been previously described. In brief, following patient consent, the resected tumors were mechanically and enzymatically dissociated, and red blood cells were removed using Red Cell Lysis buffer (SigmaAldrich, St. Louis, MO, USA). Cells were filtered and plated in a 3:1 ratio of Dulbecco’s Modified Eagle’s medium (DMEM): F12 (Gibco, Carlsbad, CA, USA) media supplemented with 1% penicillin and streptomcycin (penn/strep), 20 ng/mL each of human epidermal growth factor and human fibroblast growth factor, and 2% Gem21 NeuroPlex Serum-Free Supplement (Gemini Bioscience, Sacramento, CA, USA); a formulation consistent for the generation of GBM stem cell lines. […]
The chalcones were dissolved in dimethyl sulfoxide (DMSO) at a concentration of 10 mM, vortexed and subsequently diluted to obtain 1 mM and 0.1 mM stock concentrations. […] Cell viability in response to drug treatment was determined using CellTiter 96 AQueous One Solution Cell Proliferation Assay, a colorimetric MTS assay kit (Promega, Madison, WI, USA). […] Optical density was measured at 490 nm using BioTek Synergy HT plate reader. Viability of drug treated cells is expressed as the percent viable cells relative to non-treated cells (100% viability). […]

Glio3 [5] = test: Sphere forming assay, Glio3; details: 100 nM alone, vs non-treated controls
Procedure: (§3) The effect of chalcones’ clonogenic growth potential was determined using sphere-forming assays. Glio3 and Glio38 neurosphere cell lines were dissociated using Accutase (Gemini Bioscience, Sacramento, CA, USA), filtered using 40-micron filter and single cells were seeded at approximately 50 cells per well in a 96-well plate. Cells were treated with 0.1, 0.25 or 0.5 μM of chalcone or 0.01, 0.05 or 0.1 μM of C-dot chalcone conjugate on day 0 and spheres were manually counted under microscopy on day 14. All experiments were done in triplicate. Representative images were obtained using EVOS XL Core light microscope (Thermo Fisher Scientific, Waltham, MA, USA).

Glio38 [6] = test: Sphere forming assay, Glio38; details: 100 nM alone, vs non-treated controls
Procedure: as §3

[7] = Homo sapiens, Mesenchymal stem cells
[8] = Homo sapiens, average of Glio3, Glio9, Glio38, read-out: average IC50 across the 3 GSC lines
[9] = Homo sapiens, in all three GSC lines, read-out: IC50 in all GSC lines (bound stated in text)
[10] = average of Glio3, Glio9, Glio38, read-out: average IC50 across the 3 GSC lines

| Compound | IC50 (Glio3 [1]; Homo sapiens, MTS, ±SEM) | IC50 (Glio9; Homo sapiens, MTS, ±SEM) | IC50 (Glio38 [2]; Homo sapiens, MTS, ±SEM) | activity against GSCs [3] | IC50 [4, 7] | IC50 [3, 9] | further results |
| --- | --- | --- | --- | --- | --- | --- | --- |
| COc1ccc(/C=C/C(=O)c2ccc(N)cc2)cc1OC [Chalcone 3b] | > 10 µM | > 10 µM | > 10 µM |  |  |  |  |
| Nc1ccc(C(=O)C=Cc2ccc(N3CCOCC3)cc2)cc1 [Chalcone 3m] | > 10 µM | > 10 µM | > 10 µM | neither the morpholino or the methoxymethoxy derivatives were active against GSCs |  |  |  |
| CCOc1cc(C=CC(=O)c2ccc(N)cc2)ccc1O [Chalcone 3j] | > 10 µM | > 10 µM | > 10 µM | not active at concentrations tested |  |  |  |
| Nc1ccc(C(=O)/C=C/c2cccc(Br)c2)cc1 [Chalcone 3x] | 9.3 ± 1.1 µM | 7 ± 0.5 µM | 5.9 ± 0.8 µM |  | 28.1 µM | < 10 µM | IC50 [3, 8]: 7.4 µM |
| 3,5-dimethoxy chalcone [Chalcone 3f] |  |  |  |  |  |  | IC50 (Glio3 [1]; MTS, ±SEM): 7.8 ± 0.9 µM; IC50 (Glio9; MTS, ±SEM): 9.7 ± 2 µM; IC50 (Glio38 [2]; MTS, ±SEM): 6.5 ± 0.9 µM; IC50 [4]: 74.8 µM; IC50 [3, 10]: 8.2 ± 0.8 µM; IC50 (U87): 8.5 ± 0.04 µM |
| COc1cc(/C=C/C(=O)c2ccc(O)cc2)cc(OC)c1 [Chalcone 4b] | 6.7 ± 0.2 µM | 7 ± 0.4 µM | 6.4 ± 0.4 µM |  | 17.1 µM | < 10 µM |  |
| COc1ccc(OC)c(/C=C/C(=O)c2ccc(NC(C)=O)cc2)c1 [Chalcone 3d] | 6.9 ± 1.6 µM | 5.5 ± 1.1 µM | 7.9 ± 1.7 µM | active | 16.8 µM | < 10 µM |  |
| COC(=O)COc1ccc(C(=O)/C=C/c2cc(OC)c(OC)c(OC)c2)cc1 [Chalcone 4e] | 10.4 ± 1.4 µM | 7 ± 1.3 µM | 18.4 µM | active |  |  |  |
| transferrin: transferrin alone, targeting ligand used in the conjugates |  |  |  |  |  |  | neurosphere formation (Glio3 [5]): neither c-dots or transferrin alone significantly reduced neurosphere formation; neurosphere formation (Glio38 [6]): neither c-dots or transferrin alone significantly reduced neurosphere formation |
| Nc1ccc(C(=O)/C=C/c2ccccn2)cc1 [Chalcone 3p] | 6.6 ± 1.2 µM | 5.2 ± 0.5 µM | 6.4 ± 2 µM |  | 8 µM | < 10 µM | IC50 [3, 8]: 6.1 ± 0.4 µM |
| COc1ccc(OC)c(/C=C/C(=O)c2ccc(N)cc2)c1 [Chalcone 3c] | 12 ± 1.8 µM | 9.3 ± 0.6 µM | 10.4 ± 2 µM |  | > 10 µM | < 15 µM |  |
| COc1cc(/C=C/C(=O)c2ccc(N)cc2)ccc1O [Chalcone 3l] | > 10 µM | > 10 µM | > 10 µM |  |  |  |  |
| COCOc1ccc(C=CC(=O)c2ccc(N)cc2)cc1OC [Chalcone 3h] | > 10 µM | > 10 µM | > 10 µM | not active at concentrations tested |  |  |  |
| Nc1ccc(C(=O)/C=C/c2ccoc2)cc1 [Chalcone 3s] | > 10 µM | > 10 µM | > 10 µM |  |  |  |  |
| Nc1ccc(C(=O)/C=C/c2ccccn2)cc1 [Chalcone 3q] |  |  |  |  |  |  | IC50 (Glio3 [1]; MTS, ±SEM): 8.3 ± 0.7 µM; IC50 (Glio9; MTS, ±SEM): 6.6 ± 0.5 µM; IC50 (Glio38 [2]; MTS, ±SEM): 6.6 ± 0.7 µM; IC50 [4]: > 10 µM; IC50 [3, 10]: 7.2 ± 0.5 µM |
| COc1cc(/C=C/C(=O)c2ccc(OC(C)=O)cc2)cc(OC)c1OC [Chalcone 4d] | 7.7 ± 0.4 µM | 6.2 ± 0.9 µM | 6.9 ± 0.3 µM |  | > 10 µM | < 10 µM |  |
| COc1cc(/C=C/C(=O)c2ccc(NC(C)=O)cc2)cc(OC)c1 [Chalcone 3g] | 6.2 ± 1.3 µM | 4.8 ± 0.6 µM | 5.4 ± 0.6 µM | active | 7.4 µM | < 10 µM |  |
| CN(C)c1ccc(/C=C/C(=O)c2ccc(N)cc2)cc1 [Chalcone 3n] | > 10 µM | > 10 µM | > 10 µM | inactive at the concentrations tested |  |  |  |
| Nc1ccc(C(=O)/C=C/c2ccc(Cl)cc2)cc1 [Chalcone 3w] | 12.3 ± 1.1 µM | 7 ± 0.3 µM | 7.9 ± 0.6 µM |  | 80.1 µM | < 15 µM | IC50 [3, 8]: 9.1 µM |
| Nc1ccc(C(=O)/C=C/c2ccco2)cc1 [Chalcone 3r] | > 10 µM | > 10 µM | > 10 µM |  |  |  |  |
| 3,4,5-trimethoxy chalcone [Chalcone 3e] |  |  |  |  |  |  | IC50 (Glio3 [1]; MTS, ±SEM): 10.9 ± 0.8 µM; IC50 (Glio9; MTS, ±SEM): 8.9 ± 1.6 µM; IC50 (Glio38 [2]; MTS, ±SEM): 9.2 ± 0.8 µM; IC50 [4]: 46.7 µM; IC50 ([4]; listed as 4′-amino-trimethoxy chalcone): ~50 µM; IC50 [3, 10]: < 10 µM and 9.7 µM; IC50 ([3]; in all three GSC lines, read-out: IC50 in all GSC lines (bound stated in text)): < 15 µM |
| Nc1ccc(C(=O)/C=C/c2c[nH]c3ccccc23)cc1 [Chalcone 3t] | > 10 µM | > 10 µM | > 10 µM |  |  |  |  |
| Nc1ccc(C(=O)/C=C/c2ccc(O)cc2)cc1 [Chalcone 3i] |  |  |  | not active at concentrations tested |  |  | IC50 (Glio3 [1]; Homo sapiens): > 10 µM; IC50 (Glio9; Homo sapiens): > 10 µM; IC50 (Glio38 [2]; Homo sapiens): > 10 µM |
| COc1cc(/C=C/C(=O)c2cccc(N)c2)cc(OC)c1OC [Chalcone 5a, 3′-Amino-3,4,5-trimethoxychalcone] | 8 ± 1.5 µM | 5.1 ± 0.6 µM | 5 ± 0.8 µM |  | 5.5 µM |  |  |
| COc1cc(/C=C/C(=O)c2ccc(OCC(=O)O)cc2)cc(OC)c1OC [Chalcone 4f] | > 10 µM | > 10 µM | > 10 µM | active |  |  |  |
| Nc1ccc(C(=O)/C=C/c2cccc(Cl)c2)cc1 [Chalcone 3v] | 9.1 ± 0.6 µM | 5.8 ± 0.9 µM | 6.7 ± 0.6 µM |  | 25.7 µM | < 10 µM | IC50 [3, 8]: 7.2 µM |
| COc1cc(/C=C/C(=O)c2ccc(N)cc2)cc(OC)c1O [Chalcone 3k] | > 10 µM | > 10 µM | > 10 µM | not active at concentrations tested |  |  | activity against GSCs ([3]; listed as 4k): eliminates activity |
| Nc1ccc(C(=O)/C=C/c2cccc(F)c2)cc1 [Chalcone 3u] | 9.9 ± 0.3 µM | 7.2 ± 0.6 µM | 8.8 ± 1.4 µM |  | 15.6 µM | < 10 µM | IC50 [3, 8]: 8.6 µM |
| COc1cccc(/C=C/C(=O)c2ccc(O)cc2)c1OC [Chalcone 4a] | 11.4 ± 0.9 µM | 14.2 ± 3 µM | 9.1 ± 0.7 µM |  | > 10 µM |  |  |
